The species named for experiment [1] is Homo sapiens. Kind of experiment: Binding affinity to recombinant human TREX1 incubated in PBS and measured by thermal shift binding assay.
The species named for experiment [2] is Mus musculus. Nature of the experiment: Binding affinity to recombinant mouse TREX1 incubated in assay buffer and measured by thermal shift binding assay.
For experiment [3], the species on record is Mus musculus. Nature of the experiment: Binding affinity to recombinant mouse TREX1 incubated in PBS and measured by thermal shift binding assay.
The nature of experiment [4]: Inhibition of human TREX1 exonuclease activity using labeled DNA oligonucleotide as substrate incubated for 30 mins and measured after 45 mins by fluorescence assay.
The species named for experiment [5] is Homo sapiens. Kind of experiment: Binding affinity to recombinant human TREX1 incubated in assay buffer and measured by thermal shift binding assay.
Experiment [6] can be described thus: Inhibition of mouse TREX1 exonuclease activity using labeled DNA oligonucleotide as substrate incubated for 30 mins and measured after 45 mins by fluorescence assay.

SMILES strings stand for the structures.

This note sets out measurements from ChEMBL document CHEMBL5050833, “Novel cyclic trex1 inhibitors” (2020).

As usually defined, the ΔTm is the change in melting temperature against a reference sample. The term IC50 denotes the point on the concentration scale where inhibition reaches its midpoint. High values mean weaker potency, low ones greater potency. In the case of `N[C@@H]1C[C@H]2C(=O)N([C@H](Cc3ccc(O)cc3)C(=O)NCc3ccc(Cl)c(Cl)c3)CCC(CCc3ccccc3)N2C1` (stereo partly drawn), the ΔTm in experiment [1] was > 8 °C; in experiment [2] it was 4 °C; in experiment [3] it was 4 °C; in experiment [5] it was > 8 °C. The IC50 in experiment [4] and in experiment [6] was < 1000 nM throughout.

For `CC(C)C[C@H](C(=O)NCc1ccc(Cl)c(Cl)c1)N1CCC(CCc2ccccc2)N2C[C@H](N)C[C@H]2C1=O` (stereo partly drawn), the ΔTm was > 8 °C in experiment [1], 4 °C in experiment [2], 4 °C in experiment [3] and > 8 °C in experiment [5]. Further, the IC50 in experiment [4] and in experiment [6] was < 1000 nM each time.

Take `N[C@@H]1C[C@H]2C(=O)N([C@H](CCC(=O)O)C(=O)NCc3ccc(Cl)c(Cl)c3)CCC(CCc3ccccc3)N2C1` (stereo in doubt; form 2): the ΔTm in experiment [3] and in experiment [5] was > 8 °C throughout.

For the molecule `N[C@@H]1C[C@H]2C(=O)N([C@H](CO)C(=O)NCc3ccc(Cl)c(Cl)c3)CCC(CCc3ccccc3)N2C1` (stereo partly drawn), the ΔTm in experiment [1] was > 8 °C; in experiment [2], 4 °C; in experiment [3], 4 °C; in experiment [5], > 8 °C. Besides, the IC50 in experiment [4] and in experiment [6] was < 1000 nM in each case.

As to `N[C@@H]1C[C@H]2C(=O)N([C@H](CCC(=O)O)C(=O)NCc3ccc(C(F)(F)F)cc3)CCC(CCc3ccccc3)N2C1` (stereo in doubt; form 2), the ΔTm in experiment [1] was > 8 °C; in experiment [2], 4 °C; in experiment [3], 4 °C; in experiment [5], > 8 °C.

Regarding `CC(C)C[C@H](C(=O)NCc1cnccn1)N1CCC(CCc2ccccc2)N2C[C@H](N)C[C@H]2C1=O` (stereo partly drawn), the IC50 result is “in the range around 1000 nM” in experiment [4] and “in the range around 10000 nM” in experiment [6].

`N#CCC[C@H](C(=O)NCc1ccc(Cl)c(Cl)c1)N1CCC(CCc2ccccc2)N2C[C@H](N)C[C@H]2C1=O` (stereo partly drawn): the IC50 in experiment [4] and in experiment [6] was < 1000 nM throughout.
